Assay results from paper PMC5812233, “A novel CAV derived cell-penetrating peptide efficiently delivers exogenous molecules through caveolae-mediated endocytosis” (Veterinary Research, 2018).
Entries after “also recorded” stand apart in the source; their conditions may differ. No end group written: not given here. *: point of attachment. FITC = O=C1OC2(c3ccc(O)cc3Oc3cc(O)ccc32)c2ccc(NC(=S)*)cc21

Columns and labels:
HCT116 cells [1] = assay: Plasmid (pCDNA3.1-RFP) transfection, fluorescence microscopy and flow cytometry; assay type: cell-based; settings: 40 µM peptide, 1 µg plasmid DNA; for RFP fluorescence of cells treated with peptide-pCDNA3.1-RFP complex: 48 h post-transfection, fluorescence microscope
Procedure: (§1) The linking of DNA with CVP1 was made by the charge interaction. To confirm the formation of the peptide and plasmid complexes, the CVP1 peptide (5 μM) and plasmid DNA (200 ng) were diluted in 10 µL Opti-MEM and co-incubated at 37 °C for 45 min, and then agarose gel retardation assay was performed as described previously. The transfection experiment was conducted to test the transfection efficiency of CVP1-DNA on HCT116 cells as described previously. Briefly, 1 μg of plasmid DNA and 40 µM of CVP1 peptide or TAT peptide were diluted in 50 µL Opti-MEM, respectively and incubated at RT for 30 min. The lipofectamine 2000 (Invitrogen, USA) was used as a positive control, following the manual provided by the manufacture. […] Meanwhile, the fluorescence intensity was measured by Flow cytometry as described previously.

HCT116 cells [2] = settings: 5 µM FITC-labeled peptide, 30 min, 37 °C, serum-free medium, confocal microscopy
Procedure: (§2) 293T cells, HCT-116 cells, 3T3 cells, MDCK cells and MSB1 cells were maintained in our laboratory and were grown in Dulbecco’s modified Eagle’s medium supplemented with 10% heated-inactivated fetal bovine serum (FBS) and 1% penicillin–streptomycin solution at 37 °C and 5% CO2.
(§3) Firstly, 2.0 × 10^5 of 293T cells, HCT-116 cells, 3T3 cells or MDCK cells were seeded onto glass cover slides in 24-well plates and cultured for 12 h. The cells were then washed with phosphate buffered saline (PBS) and incubated with 5 µM of FITC-labeled CVP1, TAT and Mut-CVP1 peptides in 500 µL serum-free medium for 30 min. The concentration-dependent intake of CVP1 peptide in HCT-116 cells was then evaluated. In brief, after incubation of cells with FITC-CVP1 peptide for 30 min, cells were washed for three times and stained with Hoechst 33342 (5 µg/mL) for 10 min. Finally, cells were washed three times with PBS and imaged using confocal laser scanning microscope (Leica, TCS SP8 STED and Germany) at 60× magnification.

HCT116 cells [3] = assay: β-galactosidase delivery, X-gal staining; assay type: cell-based; settings: 20 µM peptide non-covalently complexed with 1 µg β-galactosidase, 1 h + 90 min at 37 °C, phase-contrast microscopy
Procedure: Protein delivery ability of CVP1 was assessed using β-galactosidase enzyme as previously described. In brief, CVP1 and Mut-CVP1 at a concentration of 20 µM were non-covalently complexed with β-galactosidase (1 µL, 1 µg/µL) enzyme respectively. The mixtures were incubated for 30 min at room temperature (RT) for complex formation. The peptide-enzyme complex was added to the HCT116 cells with Opti-MEM media (100 µL) and the cells were incubated for 1 h at 37 °C. After incubation, complete media (150 µL) was added to the cells, and further incubated for 90 min at 37 °C. The cells were washed thoroughly with PBS to remove extracellular peptide-enzyme complex and fixed in PBS containing 1% formaldehyde and 0.2% glutaraldehyde for 15 min at RT. The cells were washed subsequently three times with PBS and stained with X-gal staining buffer (40 mM potassium ferricyanide, 40 mM potassium ferrocyanide, 20 mM magnesium chloride, 2 mg/mL of X-gal in PBS) for 90 min at 37 °C. Finally, the cells were analyzed under a phase-contrast microscope (Olympus) at 200× magnification and imaged.

HCT116 cells [4] = assay: Flow cytometry of cellular uptake of FITC-labeled peptides; assay type: cell-based; settings: for mean percent of relative internalization: 10 000 events, three experiments in triplicate (Figure 3D)
Procedure: The comparison of cell-penetrating efficiency of peptides in HCT116 cells was tested by incubating the cells with CVP1 or TAT peptides. […] The cells were washed twice by centrifugation and finally resuspended in 400 µL PBS for assaying of cellular fluorescent intensity by flow cytometry (BD FACSAria SORP, Becton–Dickinson, USA). A total of 10 000 events were recorded. Data was obtained and analyzed using Flowjo software.

HCT116 cells [5] = assay: Cell internalization pathway: endocytosis inhibitors and temperature, flow cytometry; assay type: cell-based
Procedure: The mechanism of uptake of CVP1 in HCT116 cells was investigated by means of physical and chemical inhibition of endocytosis. Incubation of peptide and cells at 37 or 4 °C were treated to measure the influence of temperature on peptide internalization (used as a physical means of inhibition of endocytosis). HCT116 cells cultured in 12-well plates were pretreated for 30 min with inhibitors: 30 µM chlorpromazine (a clathrin-mediated endocytosis inhibitor, which prevents the assembly of clathrin-coated pits at the inner surface of the cell membrane), 5 mM methylated-β-cyclodextrin (a caveolae-mediated endocytosis inhibitor, a cholesterol depletion agent), 10 µM 5-(N-ethyl-N-isopropyl) amilorid (a macropinocytosis inhibitor, which selectively blocks the Na^+/H^+ antiporter) and 50 µM LY294002 (a macropinocytosis inhibitor, a strong phosphatidylinositol-3 kinase inhibitor) as previously described. The cells were further incubated with the peptide for 50 min and then analyzed by flow cytometry. To investigate the effect of incubation time, the HCT116 cells were incubated with CVP1 at 37 °C for different time periods.

HCT116 cells [6] = settings: up to 40 µM (5, 10, 20, 40 µM), 12, 24 and 48 h (Figure 3C)
Procedure: Effect of CVP1 on the viability of cells was evaluated by MTT assay as described previously.

MDCK cells = settings: 5 µM FITC-labeled peptide, 30 min, 37 °C, serum-free medium, confocal microscopy
Procedure: as §2, §3

293T cells = settings: 5 µM FITC-labeled peptide, 30 min, 37 °C, serum-free medium, confocal microscopy
Procedure: as §2, §3

3T3 cells = settings: 5 µM FITC-labeled peptide, 30 min, 37 °C, serum-free medium, confocal microscopy
Procedure: as §2, §3

poly (I:C) = assay: Gel retardation electrophoresis of peptide-poly (I:C) complex; assay type: binding; settings: 10 µM peptide, 5 µg poly (I:C), 45 min 37 °C
HD11 cells = assay: Poly (I:C) delivery, IFN-β mRNA by real-time PCR; assay type: cell-based; settings: 10 µM peptide, 5 µg poly (I:C), 6 h
Procedure: To analyze the ability of CVP1 to delivery poly(I;C), the CVP1 (10 µM) was first mixed with the poly (I:C) (5 µg) for 45 min at 37 °C for generating the complex. And then, the HD11 cells were incubated with peptide-poly (I:C) complexes, peptide (10 µM) only or poly (I:C) (5 µg) with transfecting reagent. After 6 h of incubation, the cells were collected and total RNA extracted using total RNA purification kit (Axygen, USA). 1 µg of RNA was reverse transcribed into cDNA with a reverse transcription reagent kit (Takara, Japan). The relative mRNA level of IFN-β was detected by Real-time PCR.

pCDNA3.1-RFP plasmid = assay: Agarose gel retardation (gel-shift) assay of peptide-plasmid complex; assay type: binding; settings: 5 µM peptide, 200 ng plasmid DNA, 37 °C 45 min, ethidium bromide
Procedure: as §1

furin = settings: motif (RKKR and RQRR) in the TAT sequence; cited from earlier work
Source text: Generally, CPPs are composed of 5–30 amino acids (aa) with enriched lysine or arginine residues, and divided into three classes including amphipathic CPP, cationic CPP and hydrophobic CPP [2, 3]. […] As the pioneer of CPPs, HIV-TAT with 86 amino acids plays vital roles in the replication of HIV. It wa ...

[7] = HCT116 cells, 0.1 µM FITC-labeled peptide, flow cytometry after trypsin 5 min to remove non-internalized peptide
[8] = HCT116 cells, 1 µM FITC-labeled peptide, flow cytometry after trypsin 5 min
[9] = HCT116 cells, 2 µM FITC-labeled peptide, flow cytometry after trypsin 5 min
[10] = HCT116 cells, 5 µM FITC-labeled peptide, flow cytometry after trypsin 5 min
[11] = HCT116 cells, 10 µM FITC-labeled peptide, flow cytometry after trypsin 5 min

{FITC}-MAAGAGAPAGAFYAFGAGA [Mut-CVP1]
RFP fluorescence of cells treated with peptide-pCDNA3.1-RFP complex (HCT116 cells [1]): no fluorescence
specific green fluorescence dots in cells (internalization) (HCT116 cells [2]): not
X-gal staining of cells treated with peptide-β-galactosidase complex (HCT116 cells [3]): very weak blue background
cell-penetrating activity (overall) (HCT116 cells [4]; HCT116 cells, FITC-labeled peptide, confocal imaging and flow cytometry): did not show any cell-penetrating activity

{FITC}-MARRARRPRGRFYAFRRGR [CVP1, N terminus (aa 1–19) of VP1 from chicken anemia virus, FITC-labeled cell-penetrating peptide]
effect of EIPA on cellular intake of the peptide (HCT116 cells [5]; HCT116 cells pretreated 30 min with 10 µM 5-(N-ethyl-N-isopropyl) amiloride (macropinocytosis inhibitor), then peptide 50 min): unable to inhibit
effect of CPZ on cellular intake of the peptide (HCT116 cells [5]; HCT116 cells pretreated 30 min with 30 µM chlorpromazine (clathrin-mediated endocytosis inhibitor), then peptide 50 min): unable to inhibit
effect of LY294002 on cellular intake of the peptide (HCT116 cells [5]; HCT116 cells pretreated 30 min with 50 µM LY294002 (macropinocytosis inhibitor), then peptide 50 min): only slightly blocked
effect of MβCD on cellular intake of the peptide (HCT116 cells [5]; HCT116 cells pretreated 30 min with 5 mM methylated-β-cyclodextrin (caveolae-mediated endocytosis inhibitor), then peptide 50 min): significantly reduced
cell-penetrating activity at 4 °C (HCT116 cells [5]; HCT116 cells, 10 µM peptide, 4 °C compared with 37 °C): efficiently inhibited
efficacy of delivering plasmid, comparison with other carriers (HCT116 cells [1]; 48 h, flow cytometry, comparators TAT peptide, lipofectamine 2000): significantly higher signal of fluorescence than the TAT/RFP sample; also recorded: not as equal as commercial transfection reagents
RFP fluorescence of cells treated with peptide-pCDNA3.1-RFP complex (HCT116 cells [1]): strong fluorescence
toxicity to cells (cell viability, MTT) (HCT116 cells [6]): non-toxic
specific green fluorescence dots in cells (internalization) (MDCK cells): clearly observed
specific green fluorescence dots in cells (internalization) (293T cells): clearly observed
specific green fluorescence dots in cells (internalization) (3T3 cells): clearly observed
specific green fluorescence dots in cells (internalization) (HCT116 cells [2]): clearly observed
complex formation with poly (I:C) (poly (I:C)): could conjugate with the poly (I:C) to form a complex
X-gal staining of cells treated with peptide-β-galactosidase complex (HCT116 cells [3]): strong blue color
mean percent of relative internalization (HCT116 cells [4]; [7]): 0.1%
mean percent of relative internalization (HCT116 cells [4]; [8]): 2.1%
mean percent of relative internalization (HCT116 cells [4]; [9]): 18.7%
mean percent of relative internalization (HCT116 cells [4]; [10]): 86%
intensity of fluorescence in cells versus incubation time (HCT116 cells [4]; HCT116 cells, 5 µM peptide, 5, 10, 15, 20, 25, 30 min, flow cytometry (Figure 3B)): increased as the incubation time was increased from 5 to 30 min
mean percent of relative internalization (HCT116 cells [4]; [11]): 98%
cell-penetrating efficiency versus concentration (HCT116 cells [4]; HCT116 cells, 1, 2, 5, 10, 20, 40 µM, 30 min, 37 °C, flow cytometry (Figure 3A)): dose-dependent
capacity of delivering poly (I:C), comparison with other carriers (HD11 cells; IFN-β mRNA by real-time PCR, comparators TAT, transfection reagent): higher than the TAT; also recorded: not as equal as commercial transfection reagents
IFN-β mRNA expression of cells treated with peptide/poly (I:C) complexes versus naked peptide or poly (I:C) only (HD11 cells; real-time PCR): significantly increased
migration of plasmid conjugated with peptide (DNA binding capacity) (pCDNA3.1-RFP plasmid): much lower migration speed than naked plasmid

FITC-YGRKKRRQRRR [TAT, reference compound]
stability toward furin (furin): cleaved by furin
mean percent of relative internalization (HCT116 cells [4]; [7]): 0.1%
mean percent of relative internalization (HCT116 cells [4]; [8]): 0.4%
mean percent of relative internalization (HCT116 cells [4]; [9]): 1.7%
mean percent of relative internalization (HCT116 cells [4]; [10]): 25%
mean percent of relative internalization (HCT116 cells [4]; [11]): 61%
